Literature values as cited in patent publication US10940128B2, “Injectable melphalan compositions comprising a cyclodextrin derivative and methods of making and using the same” (CYDEX PHARMACEUTICALS, INC., priority 2009, dated 2021).
Where two headings read alike, the source gives them in different places.

Legend:
certain animal tumors = conditions: in vivo; cited from earlier work
[1] = cited from earlier work; for Mean (±SD) peak melphalan plasma concentrations: myeloma patients; for clearance of melphalan: repeat dosing of 0.5 mg/kg every 6 weeks
plasma proteins = conditions: cited from earlier work
[2] = patients who have received intravenous melphalan; cited from earlier work
[3] = water (pH 7); cited from earlier work

Structure (SMILES) | activity against certain animal tumors compared with melphalan (certain animal tumors) | steady-state volume of distribution ([1]; after intravenous administration of 50 mg of melphalan) | Mean (±SD) peak melphalan plasma concentrations ([1]; 10 mg/m^2 dose) | Mean (±SD) peak melphalan plasma concentrations ([1]; 20 mg/m^2 dose) | clearance of melphalan ([1]; after the first course) | clearance of melphalan ([1]; after the third course) | extent of melphalan binding to plasma proteins (plasma proteins) | drug (covalently) irreversibly bound to plasma proteins (plasma proteins; plasma) | share of the plasma protein binding accounted for by α1-acid glycoprotein (plasma proteins; plasma) | hypersensitivity reactions, including anaphylaxis, share of patients [2] | solubility in water [3]
N[C@H](Cc1ccc(N(CCCl)CCCl)cc1)C(=O)O [medphalan] | less active |  |  |  |  |  |  |  |  |  | 
N[C@@H](Cc1ccc(N(CCCl)CCCl)cc1)C(=O)O [melphalan, 4-[bis(chloroethyl)amino]phenylalanine] |  | 0.5 L/kg | 1.2 ± 0.4 µg/mL | 2.8 ± 1.9 µg/mL | 8.1 mL/min/kg | 5.5 mL/min/kg | 60% to 90 | Approximately 30% | about 20% | approximately 2% | practically insoluble
